Experiments:
[1] = tested on: caterpillars of the army worm (Spodoptera frugiperda); assay: Spodoptera frugiperda test (dipped cabbage leaves); format: in vivo; settings: for Efficacy in % after 7d: 500 ppm active compound, kill after 7 d, cabbage leaves (Brassica oleracea); for kill: active compound concentration of 500 ppm, after 7 days
Procedure: Spodoptera frugiperda Test
(§1) • Solvent: 7 parts by weight of dimethylformamide • Emulsifier: 2 parts by weight of alkylaryl polyglycol ether
(§2) To produce a suitable preparation of active compound, 1 part by weight of active compound is mixed with the stated amount of solvent and emulsifier, and the concentrate is diluted with emulsifier-containing water to the desired concentration.
Cabbage leaves (Brassica oleracea) are treated by being dipped into the preparation of active compound of the desired concentration and are populated with caterpillars of the army worm (Spodoptera frugiperda) while the leaves are still moist.
After the desired period of time, the kill in % is determined. 100% means that all caterpillars have been killed; 0% means that none of the caterpillars have been killed.

[2] = tested on: larvae of the mustard beetle (Phaedon cochleariae); assay: Phaedon larvae test (dipped cabbage leaves); format: in vivo; settings: 500 ppm active compound, kill after 7 d, cabbage leaves (Brassica oleracea)
Procedure: as §1, §2
After the desired period of time, the kill in % is determined. 100% means that all beetle larvae have been killed; 0% means that none of the beetle larvae have been killed.

[3] = logP determination by HPLC (reversed-phase C 18), EEC Directive 79/831 Annex V.A8; format: physicochemical; settings: acidic range, 0.1% aqueous phosphoric acid/acetonitrile; for logP (pH 2): reversed-phase C 18, 43° C.; for chromatographic logP: reversed-phase C18 HPLC column, pH 2, reversed-phase C 18, 43° C.
Procedure: The logP values given in the Tables and Preparation Examples above are determined in accordance with EEC Directive 79/831 Annex V.A8 by HPLC (High Performance Liquid Chromatography) using a reversed-phase column (C 18). Temperature: 43° C.
The determination is carried out in the acidic range at pH 2.3 using the-mobile phases 0.1% aqueous phosphoric acid and acetonitrile; linear gradient from 10% acetonitrile to 90% acetonitrile.

| chromatographic logP [3] | SMILES | Efficacy in % after 7d [1] [%] | kill [1] [%] | Efficacy in % after 7d [2] [%] | logP (pH 2) [3] |
| --- | --- | --- | --- | --- | --- |
|  | CC(C)(C)n1nnc(-c2cnn(C3CN(C(=O)N(CC#N)c4ccc(OC(F)(F)F)cc4)N=C3c3ccc(Cl)cc3)c2)n1 (centres unmarked) [Example 2, N-cyanomethyl-N(4-trifluoromethoxy)-3-(4-chlorophenyl)-4-[4-(2-tert-butyltetrazol-5-yl)pyrazol-1-yl]-4,5-dihydro-1-pyrazolecarboxanilide] | 100 | 100 | 100 | 4.40 |
|  | CC(C)(C)n1nnc(-c2cnn(C3CN(C(=O)Nc4ccc(OC(F)(F)F)cc4)N=C3c3ccc(Cl)cc3)c2)n1 (centres unmarked) [Example 1, N-(4-trifluoromethoxy)-3-(4-chlorophenyl)-4-[4-(2-tert-butyltetrazol-5-yl)pyrazol-1-yl]-4,5-dihydro-1-pyrazolecarboxanilide] |  |  |  | 4.63 |
| 2.91 | CC(C)(C)n1nnc(-c2cnn(C3CNN=C3c3ccc(Cl)cc3)c2)n1 (centres unmarked) [3-(4-chlorophenyl)-4-[4-(2-tert-butyltetrazol-5-yl)pyrazol-1-yl]4,5-dihydro-1H-pyrazole] |  |  |  |  |
| 1.6 | O=C(Cn1cc(-c2nn[nH]n2)cn1)c1ccc(Cl)cc1 [2-[4-(tetrazol-5-yl)pyrazol-1-yl]-4′-chloroacetophenone] |  |  |  |  |
| 3.51 | Cn1nnc(-c2cnn(C3CN(C(=O)N(CC#N)c4ccc(OC(F)(F)F)cc4)N=C3c3ccc(Cl)cc3)c2)n1 (centres unmarked) [Example 6] | 100 |  | 100 |  |
| 2.96 | CC(C)(C)n1nnc(-c2cnn(CC(=O)c3ccc(Cl)cc3)c2)n1 [2-[4-(2-tert-butyltetrazol-5-yl)pyrazol-1-yl]-4′-chloroacetophenone] |  |  |  |  |
| 3.75 | Cn1nnc(-c2cnn(C3CN(C(=O)Nc4ccc(OC(F)(F)F)cc4)N=C3c3ccc(Cl)cc3)c2)n1 (centres unmarked) [Example 4] | 100 | 100 |  |  |

— patent publication US7345080B2, “Substituted 4-pyrazolyl pyrazonlines used for pest control” (Bayer CropScience AG, priority 2002, dated 2008)
